# From ChEMBL document CHEMBL5356971, “Optimization of the Antibacterial Spectrum and the Developability Profile of the Novel-Class Natural Product Corramycin” (J Med Chem, 2023)
# The source made the active and inactive calls. The rule behind the calls is not given here.
# Experiments:
# Klebsiella pneumoniae [1] = test: Antibacterial activity against multidrug-resistant Klebsiella pneumoniae BAA2473 assessed as bacterial growth inhibition incubated for 20 to 22 hrs by CLSI based analysis; type: functional; conditions: time 20-22 hrs
# Proteus mirabilis = test: Antibacterial activity against multidrug-resistant Proteus mirabilis ATCC 7002 assessed as bacterial growth inhibition incubated for 20 to 22 hrs by CLSI based analysis; type: functional; conditions: time 20-22 hrs
# Escherichia coli [2] = test: Antibacterial activity against multidrug-resistant Escherichia coli MG1655 assessed as bacterial growth inhibition incubated for 20 to 22 hrs by CLSI based analysis; type: functional; conditions: time 20-22 hrs
# Escherichia coli [3] = test: Antibacterial activity against multidrug-resistant Escherichia coli BAA2469 assessed as bacterial growth inhibition incubated for 20 to 22 hrs by CLSI based analysis; type: functional; conditions: time 20-22 hrs
# Providencia stuartii = test: Antibacterial activity against multidrug-resistant Providencia stuartii ATCC 49809 assessed as bacterial growth inhibition incubated for 20 to 22 hrs by CLSI based analysis; type: functional; conditions: time 20-22 hrs
# Staphylococcus aureus = test: Antibacterial activity against multidrug-resistant Staphylococcus aureus ATCC 33592 assessed as bacterial growth inhibition incubated for 20 to 22 hrs by CLSI based analysis; type: functional; conditions: time 20-22 hrs
# [4] = target: Voltage-gated inwardly rectifying potassium channel KCNH2 (Homo sapiens, UniProt Q12809); test: Inhibition of hERG; type: toxicity; conditions: human
# Chain of Voltage-gated inwardly rectifying potassium channel KCNH2 (Q12809 whole entry): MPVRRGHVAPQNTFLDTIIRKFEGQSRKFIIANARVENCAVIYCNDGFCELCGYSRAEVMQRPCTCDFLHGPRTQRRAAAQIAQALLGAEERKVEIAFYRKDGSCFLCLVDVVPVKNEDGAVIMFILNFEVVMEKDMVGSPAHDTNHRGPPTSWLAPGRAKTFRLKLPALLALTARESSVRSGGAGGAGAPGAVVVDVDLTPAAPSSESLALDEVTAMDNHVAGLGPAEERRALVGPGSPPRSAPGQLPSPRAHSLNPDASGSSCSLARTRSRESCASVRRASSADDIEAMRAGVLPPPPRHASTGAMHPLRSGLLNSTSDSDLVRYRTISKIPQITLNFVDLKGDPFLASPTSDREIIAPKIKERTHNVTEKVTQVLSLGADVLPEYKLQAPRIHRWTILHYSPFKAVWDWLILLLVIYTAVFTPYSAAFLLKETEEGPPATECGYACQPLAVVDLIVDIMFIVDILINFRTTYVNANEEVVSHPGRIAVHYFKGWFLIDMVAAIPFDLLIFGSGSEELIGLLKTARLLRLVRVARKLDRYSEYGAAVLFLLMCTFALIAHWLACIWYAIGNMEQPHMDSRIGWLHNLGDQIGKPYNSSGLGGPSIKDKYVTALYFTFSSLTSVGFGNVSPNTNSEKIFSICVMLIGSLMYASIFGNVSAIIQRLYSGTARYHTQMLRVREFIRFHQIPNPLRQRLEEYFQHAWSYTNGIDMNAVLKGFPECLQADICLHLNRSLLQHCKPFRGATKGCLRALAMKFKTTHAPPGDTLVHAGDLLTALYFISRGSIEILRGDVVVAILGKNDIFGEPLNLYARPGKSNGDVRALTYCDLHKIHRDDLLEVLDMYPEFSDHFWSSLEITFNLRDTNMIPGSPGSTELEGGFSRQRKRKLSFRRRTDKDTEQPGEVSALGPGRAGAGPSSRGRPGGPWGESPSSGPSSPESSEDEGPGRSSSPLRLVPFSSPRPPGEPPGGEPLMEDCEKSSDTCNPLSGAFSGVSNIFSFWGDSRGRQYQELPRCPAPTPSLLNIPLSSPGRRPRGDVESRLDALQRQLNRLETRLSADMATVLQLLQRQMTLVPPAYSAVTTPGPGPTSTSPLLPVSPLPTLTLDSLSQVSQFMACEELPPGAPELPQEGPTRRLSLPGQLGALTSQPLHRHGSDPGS
# [5] = Volume of distribution at steady state in Swiss mouse at 3 mg/kg, iv measured upto 24 hrs by LC-MS/MS analysis; type: ADME, organism-based; conditions: in vivo, read-out: Vdss
# [6] = Ratio of drug concentration in mouse blood to plasma; type: ADME, cell-free
# [7] = Ratio of AUC in Lung to plasma in Swiss mouse at 3 mg/kg, iv measured upto 24 hrs by LC-MS/MS analysis; type: ADME, organism-based; conditions: read-out: Ratio AUC
# Klebsiella pneumoniae [8] = test: Antibacterial activity against Klebsiella pneumoniae ATCC 13883 infected in Swiss albino mouse model of neutropenic lung infection at 10 mg/kg, iv pretreated for 1 hr followed by bacterial infection and measured after 5 hr post infection; type: functional, organism-based; conditions: time 6.0 hrs
# [9] = AUClast in Swiss mouse Lung at 3 mg/kg, iv measured upto 24 hrs by LC-MS/MS analysis; type: ADME, organism-based; design: time < 24 hrs, dose 3 mg/kg, route iv
# THP-1 = test: Cytotoxicity against human THP-1 cells assessed as inhibition of cell growth at 30 uM incubated for 40 hrs by celltiterglo assay; type: functional, cell-based
# [10] = Metabolic stability in mouse lung assessed as parent compound remaining measured after 1 hrs by UPLC-MS analysis; type: ADME, tissue-based; conditions: mouse lung, read-out: Stability
# [11] = Protein binding in mouse plasma assessed as free fraction; type: ADME, cell-free
# Klebsiella pneumoniae [12] = test: Antibacterial activity against Klebsiella pneumoniae ATCC 13883 harboring SbmA assessed as reduction in microbial growth incubated for 20 to 22 hrs by CLSI based analysis; type: functional; conditions: time 20-22 hrs
# [13] = Metabolic stability in mouse kidney assessed as parent compound remaining measured after 1 hrs by UPLC-MS analysis; type: ADME, tissue-based; conditions: read-out: Stability
# Escherichia coli [14] = test: Antibacterial activity against Escherichia coli UT189 infected in Swiss albino mouse model of urinary tract infection assessed as log reduction in bacteremia in kidney at 10 mg/kg, iv pre-infected with bacteria for 24 hrs followed by compound treatment for every 24 hrs for 3 days; type: functional; conditions: time 3 day
# Klebsiella pneumoniae [15] = test: Antibacterial activity against multidrug-resistant Klebsiella pneumoniae G199 assessed as bacterial growth inhibition incubated for 20 to 22 hrs by CLSI based analysis; type: functional; conditions: time 20-22 hrs
# Acinetobacter baumannii = test: Antibacterial activity against multidrug-resistant Acinetobacter baumannii R835 assessed as bacterial growth inhibition incubated for 20 to 22 hrs by CLSI based analysis; type: functional; conditions: time 20-22 hrs
# [16] = Protein binding in human plasma assessed as free fraction; type: ADME, cell-free
structure (smiles),measurement,setting,value
CO[C@@H](CNC(=O)[C@H](NC(=O)[C@H](O)[C@H](C)O)[C@H](O)c1cncn1C)[C@H](O)[C@H](O)C(=O)N(C)[C@@H](Cc1ccccc1)C(=O)NCC(=O)N[C@H](C(=O)N[C@@H](CO)C(=O)N[C@H](C(=O)N[C@H](C(=O)N[C@@H](CC(=O)O)C(=O)N1CCC[C@H]1C(=O)NCc1cc(=O)c(O)cn1O)C(C)(C)C)C(C)(C)O)C(C)(C)O,MIC,Klebsiella pneumoniae [1],4 µg/mL
same,MIC,Proteus mirabilis,0.12 µg/mL
same,MIC,Escherichia coli [2],0.03 µg/mL
same,MIC,Escherichia coli [3],0.06 µg/mL
same,MIC,Providencia stuartii,0.06 µg/mL
same,MIC,Staphylococcus aureus,4 µg/mL
same,inhibition (INH),[4],Not Active
same,Vd,[5],0.25 L/kg
same,blood plasma ratio,[6],4.5
same,Kp at 24 h,[7],0.4
same,Activity,Klebsiella pneumoniae [8],Active
same,AUC(0-t) at 24 h,[9],1010 ng·h/mL
same,Activity,THP-1,inactive
same,remaining at 1 h,[10],100%
same,fraction unbound,[11],0.51
same,MIC,Klebsiella pneumoniae [12],16 µg/mL
same,remaining at 1 h,[13],103%
same,log(activity),Escherichia coli [14],3.6
same,MIC,Klebsiella pneumoniae [15],0.06 µg/mL
same,MIC,Acinetobacter baumannii,0.06 µg/mL
same,fraction unbound,[16],0.26
